Results as given in patent US12180193B2, “Accelerating fibrosarcoma protein degrading compounds and associated methods of use” (Arvinas Operations, Inc., priority 2020, dated 2024).

Legend:
BRAF V600E = target: T1, BRAF V600E (Homo sapiens, UniProt P15056, V600E); assay: Cellular assay of target protein degradation, T-Rex 293 cells stably transfected with HA-BRAF_V600E (HA immunofluorescence, high content imaging); type: cell-based; settings: T-Rex 293 HA-BRAF V600E; for DC50: half maximal degradation, read-out: BRaf V600E DC50; for Dmax: maximum degradation observed
T1 construct: expressed in transfected cells
Outline: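 24 h compound exposure, 1 μM–0.1 nM final, 0.1% DMSO, 37 °C; cells induced with 1 ng/mL doxycycline. PFA fix, Triton permeabilize, anti-HA overnight 4 °C, Hoechst/phalloidin counterstain. Output: DC50, Dmax as % control.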

BRAF G466V = target: T2, BRAF G466V (Homo sapiens, UniProt P15056, G466V); assay: Cellular assay of target protein degradation, T-Rex 293 cells stably transfected with HA-BRAF G466V (HA immunofluorescence, high content imaging); type: cell-based; settings: T-Rex 293 HA-BRAF G466V; for DC50: half maximal degradation, read-out: BRaf G466V DC50; for Dmax: maximum degradation observed
T2 construct: expressed in transfected cells
Outline: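 24 h compound, 30 nM–3 pM final, 0.1% DMSO, 37° C; HA-BRAF G466V induced with 0.75 ng/mL doxycycline. PFA fix, Triton perm, anti-HA + Alexa fluor secondary, Hoechst/phalloidin counterstain; imaging. DC50, Dmax (% of control).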

T2 sequence (P15056 whole entry G466V): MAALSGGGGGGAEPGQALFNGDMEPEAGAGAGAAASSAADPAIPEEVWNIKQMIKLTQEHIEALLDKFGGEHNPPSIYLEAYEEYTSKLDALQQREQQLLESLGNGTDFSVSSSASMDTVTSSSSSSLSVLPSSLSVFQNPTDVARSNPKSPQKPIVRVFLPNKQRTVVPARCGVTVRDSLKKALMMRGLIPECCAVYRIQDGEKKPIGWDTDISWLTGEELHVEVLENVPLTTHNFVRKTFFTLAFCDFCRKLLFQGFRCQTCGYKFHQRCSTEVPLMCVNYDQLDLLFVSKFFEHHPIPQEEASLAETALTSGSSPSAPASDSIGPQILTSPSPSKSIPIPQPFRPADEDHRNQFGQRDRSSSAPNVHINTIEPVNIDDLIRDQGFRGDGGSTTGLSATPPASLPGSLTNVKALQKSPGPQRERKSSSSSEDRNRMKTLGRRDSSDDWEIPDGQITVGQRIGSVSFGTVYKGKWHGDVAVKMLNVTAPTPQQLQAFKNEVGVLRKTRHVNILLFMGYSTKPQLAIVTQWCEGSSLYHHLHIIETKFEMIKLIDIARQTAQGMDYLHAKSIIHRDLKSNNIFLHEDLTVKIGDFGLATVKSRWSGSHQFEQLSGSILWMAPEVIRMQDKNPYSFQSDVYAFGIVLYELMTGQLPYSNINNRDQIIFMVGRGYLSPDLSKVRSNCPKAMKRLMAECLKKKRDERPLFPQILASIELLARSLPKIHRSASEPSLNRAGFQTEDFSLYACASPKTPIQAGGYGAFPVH
T1 sequence (P15056 whole entry V600E): as the sequence (P15056 whole entry G466V) above, with V466G, V600E counted along it

Compound | DC50 (BRAF V600E) | Dmax (BRAF V600E) | DC50 (BRAF G466V) | Dmax (BRAF G466V)
O=C1CCC(N2Cc3cc(N4CC(CN5CCN(Cc6ccc(-c7cnc8[nH]cc(C(=O)c9c(F)ccc(NS(=O)(=O)N%10CC[C@@H](F)C%10)c9F)c8c7)cc6)CC5)C4)ccc3C2=O)C(=O)N1 (stereo partly drawn) [Compound 192, (3R)-N-{3-[5-(4-{[4-({1-[2-(2,6-dioxopiperidin-3-yl)-1-oxo-2,3-dihydro-1H-isoindol-5-yl]azetidin-3-yl}methyl)piperazin-1-yl]methyl}phenyl)-1H-pyrrolo[2,3-b]pyridine-3-carbonyl]-2,4-difluorophenyl}-3-fluoropyrrolidine-1-sulfonamide] | 5 to 50 nM | 35 to 70% | 1 to 10 nM | > 70%
O=C1CCC(N2Cc3cc(N4CC(CN5CCN(Cc6ncc(-c7cnc8[nH]cc(C(=O)c9c(F)ccc(NS(=O)(=O)N%10CC[C@@H](F)C%10)c9F)c8c7)cn6)CC5)C4)ccc3C2=O)C(=O)N1 (stereo partly drawn) [Compound 193, (3R)-N-{3-[5-(2-{[4-({1-[2-(2,6-dioxopiperidin-3-yl)-1-oxo-2,3-dihydro-1H-isoindol-5-yl]azetidin-3-yl}methyl)piperazin-1-yl]methyl}pyrimidin-5-yl)-1H-pyrrolo[2,3-b]pyridine-3-carbonyl]-2,4-difluorophenyl}-3-fluoropyrrolidine-1-sulfonamide] | 50 to 500 nM | 35 to 70% | 1 to 10 nM | 35 to 70%
O=C1CCC(N2Cc3cc(N4CC(CN5CCC(Cc6ncc(-c7cnc8[nH]cc(C(=O)c9c(F)ccc(NS(=O)(=O)N%10CC[C@@H](F)C%10)c9F)c8c7)cn6)CC5)C4)ccc3C2=O)C(=O)N1 (stereo partly drawn) [Compound 194, (3R)-N-{3-[5-(2-{[1-({1-[2-(2,6-dioxopiperidin-3-yl)-1-oxo-2,3-dihydro-1H-isoindol-5-yl]azetidin-3-yl}methyl)piperidin-4-yl]methyl}pyrimidin-5-yl)-1H-pyrrolo[2,3-b]pyridine-3-carbonyl]-2,4-difluorophenyl}-3-fluoropyrrolidine-1-sulfonamide] | 50 to 500 nM | 35 to 70% | 1 to 10 nM | > 70%
CN(CCN1CCN(c2ccc(-c3cnc4[nH]cc(C(=O)c5c(F)ccc(NS(=O)(=O)N6CC[C@@H](F)C6)c5F)c4c3)cc2)CC1)[C@H]1CC[C@H](Oc2ccc3c(c2)CN(C2CCC(=O)NC2=O)C3=O)CC1 (stereo partly drawn) [Compound 195, (3R)-N-[2,4-difluoro-3-(5-{4-[4-(2-{methyl[(1r,4r)-4-{[2-(2,6-dioxopiperidin-3-yl)-1-oxo-2,3-dihydro-1H-isoindol-5-yl]oxy}cyclohexyl]amino}ethyl)piperazin-1-yl]phenyl}-1H-pyrrolo[2,3-b]pyridine-3-carbonyl)phenyl]-3-fluoropyrrolidine-1-sulfonamide] | 5 to 50 nM | 35 to 70% | 1 to 10 nM | 35 to 70%
O=C1CC[C@H](NC(=O)c2cc(C3CCN(CC4CCN(c5ccc(-c6cnc7[nH]cc(C(=O)c8c(F)ccc(NS(=O)(=O)N9CC[C@@H](F)C9)c8F)c7c6)cc5)CC4)CC3)ccc2F)C(=O)N1 [Compound 196, 5-(1-{[1-(4-{3-[2,6-difluoro-3-({[(3R)-3-fluoropyrrolidin-1-yl]sulfonyl}amino)benzoyl]-1H-pyrrolo[2,3-b]pyridin-5-yl}phenyl)piperidin-4-yl]methyl}piperidin-4-yl)-N-[(3S)-2,6-dioxopiperidin-3-yl]-2-fluorobenzamide] | 5 to 50 nM | 35 to 70% | 1 to 10 nM | 35 to 70%
O=C1CC[C@@H](NC(=O)c2cc(C3CCN(CC4CCN(c5ccc(-c6cnc7[nH]cc(C(=O)c8c(F)ccc(NS(=O)(=O)N9CC[C@@H](F)C9)c8F)c7c6)cc5)CC4)CC3)ccc2F)C(=O)N1 [Compound 197, 5-(1-{[1-(4-{3-[2,6-difluoro-3-({[(3R)-3-fluoropyrrolidin-1-yl]sulfonyl}amino)benzoyl]-1H-pyrrolo[2,3-b]pyridin-5-yl}phenyl)piperidin-4-yl]methyl}piperidin-4-yl)-N-[(3R)-2,6-dioxopiperidin-3-yl]-2-fluorobenzamide] | 5 to 50 nM | < 35% | 1 to 10 nM | 35 to 70%
O=C1CCC(N2Cc3cc(C4CCN(CC5CN(c6ccc(-c7cnc8[nH]cc(C(=O)c9c(F)ccc(NS(=O)(=O)N%10CC[C@@H](F)C%10)c9F)c8c7)cc6)C5)CC4)ccc3C2=O)C(=O)N1 (stereo partly drawn) [Compound 198, (3R)-N-[3-(5-{4-[3-({4-[2-(2,6-dioxopiperidin-3-yl)-1-oxo-2,3-dihydro-1H-isoindol-5-yl]piperidin-1-yl}methyl)azetidin-1-yl]phenyl}-1H-pyrrolo[2,3-b]pyridine-3-carbonyl)-2,4-difluorophenyl]-3-fluoropyrrolidine-1-sulfonamide] | 5 to 50 nM | < 35% | 1 to 10 nM | > 70%
O=C1CCN(c2ccc(C3CCN(CCC4CCN(c5ccc(-c6cnc7[nH]cc(C(=O)c8c(F)ccc(NS(=O)(=O)N9CC[C@@H](F)C9)c8F)c7c6)cc5)CC4)CC3)cc2F)C(=O)N1 [Compound 199, (3R)-N-[3-(5-[4-[4-(2-[4-[4-(2,4-dioxo-1,3-diazinan-1-yl)-3-fluorophenyl]piperidin-1-yl]ethyl)piperidin-1-yl]phenyl]-1H-pyrrolo[2,3-b]pyridine-3-carbonyl)-2,4-difluorophenyl]-3-fluoropyrrolidine-1-sulfonamide] | 5 to 50 nM | 35 to 70% | 1 to 10 nM | 35 to 70%
O=C1CCC(N2Cc3cc(N4CC(CN5CCN(C6(c7ccc(-c8cnc9[nH]cc(C(=O)c%10c(F)ccc(NS(=O)(=O)N%11CC[C@@H](F)C%11)c%10F)c9c8)cc7)CC6)CC5)C4)ccc3C2=O)C(=O)N1 (stereo partly drawn) [Compound 200, (3R)-N-{3-[5-(4-{1-[4-({1-[2-(2,6-dioxopiperidin-3-yl)-1-oxo-2,3-dihydro-1H-isoindol-5-yl]azetidin-3-yl}methyl)piperazin-1-yl]cyclopropyl}phenyl)-1H-pyrrolo[2,3-b]pyridine-3-carbonyl]-2,4-difluorophenyl}-3-fluoropyrrolidine-1-sulfonamide] | 50 to 500 nM | 35 to 70% | 1 to 10 nM | 35 to 70%
O=C1CC[C@H](N2Cc3cc(N4CCC(CN5CCN(C6(c7ncc(-c8cnc9[nH]cc(C(=O)c%10c(F)ccc(NS(=O)(=O)N%11CC[C@@H](F)C%11)c%10F)c9c8)cn7)CC6)CC5)CC4)ccc3C2=O)C(=O)N1 [Compound 201, (3R)-N-[3-[5-[2-[1-[4-[[1-[2-[(3S)-2,6-dioxo-3-piperidyl]-1-oxo-isoindolin-5-yl]-4-piperidyl]methyl]piperazin-1-yl]cyclopropyl]pyrimidin-5-yl]-1H-pyrrolo[2,3-b]pyridine-3-carbonyl]-2,4-difluoro-phenyl]-3-fluoro-pyrrolidine-1-sulfonamide] | 5 to 50 nM | < 35% | 1 to 10 nM | 35 to 70%
O=C1CC[C@H](N2Cc3cc(N4CC(CN5CCN(C6(c7ncc(-c8cnc9[nH]cc(C(=O)c%10c(F)ccc(NS(=O)(=O)N%11CC[C@@H](F)C%11)c%10F)c9c8)cn7)CC6)CC5)C4)ccc3C2=O)C(=O)N1 [Compound 202, (3R)-N-(3-{5-[2-(1-{4-[(1-{2-[(3S)-2,6-dioxopiperidin-3-yl]-1-oxo-2,3-dihydro-1H-isoindol-5-yl}azetidin-3-yl)methyl]piperazin-1-yl}cyclopropyl)pyrimidin-5-yl]-1H-pyrrolo[2,3-b]pyridine-3-carbonyl}-2,4-difluorophenyl)-3-fluoropyrrolidine-1-sulfonamide] | 50 to 500 nM | 35 to 70% | 1 to 10 nM | 35 to 70%
CCc1c(NS(=O)(=O)N2CC[C@@H](F)C2)ccc(F)c1C(=O)c1c[nH]c2ncc(-c3ccc(N4CCC(CN5CCC(c6ccc7c(c6)CN([C@H]6CCC(=O)NC6=O)C7=O)CC5)CC4)cc3)cc12 [Compound 203, (3R)—N-{3-[5-(4-{4-[(4-{2-[(3S)-2,6-dioxopiperidin-3-yl]-1-oxo-2,3-dihydro-1H-isoindol-5-yl}piperidin-1-yl)methyl]piperidin-1-yl}phenyl)-1H-pyrrolo[2,3-b]pyridine-3-carbonyl]-2-ethyl-4-fluorophenyl}-3-fluoropyrrolidine-1-sulfonamide] | < 5 nM | 35 to 70% | < 1 nM | 35 to 70%
CC(C)CS(=O)(=O)Nc1ccc(F)c(C(=O)c2c[nH]c3ncc(-c4ccc(N5CCC(CN6CCC(c7ccc8c(c7)CN([C@H]7CCC(=O)NC7=O)C8=O)CC6)CC5)cc4)cc23)c1F [Compound 204, N-{3-[5-(4-{4-[(4-{2-[(3S)-2,6-dioxopiperidin-3-yl]-1-oxo-2,3-dihydro-1H-isoindol-5-yl}piperidin-1-yl)methyl]piperidin-1-yl}phenyl)-1H-pyrrolo[2,3-b]pyridine-3-carbonyl]-2,4-difluorophenyl}-2-methylpropane-1-sulfonamide] | < 5 nM | 35 to 70% | < 1 nM | 35 to 70%
N#Cc1cc(-c2cnc3[nH]cc(C(=O)c4c(F)ccc(NS(=O)(=O)N5CC[C@@H](F)C5)c4F)c3c2)ccc1N1CCC(CN2CCC(c3ccc4c(c3)CN([C@H]3CCC(=O)NC3=O)C4=O)CC2)CC1 [Compound 205, (3R)—N-{3-[5-(3-cyano-4-{4-[(4-{2-[(3S)-2,6-dioxopiperidin-3-yl]-1-oxo-2,3-dihydro-1H-isoindol-5-yl}piperidin-1-yl)methyl]piperidin-1-yl}phenyl)-1H-pyrrolo[2,3-b]pyridine-3-carbonyl]-2,4-difluorophenyl}-3-fluoropyrrolidine-1-sulfonamide] | 5 to 50 nM | 35 to 70% | < 1 nM | 35 to 70%
